Laboratory results published in patent US12011560B2, “Drug delivery methods and systems” (Morningside Venture Investments Limited, priority 2015, dated 2024).
Like-named read-outs stand apart in the source and are kept apart here.

Columns and labels:
[1] = Experimental: FIGS. 30-32 illustrate different transdermal membrane materials being tested with different solvents and solvent compositions. Solutions of water and different alcohols, including isopropanol, ethanol, and methanol were tested. The water to alcohol content was varied between 0/100 and 100/0 (by v/v) and tested with different membrane materials. For the tests 1.6 mL of solution was injected into the area between the transdermal membrane and the vapor permeable membrane. […] The membranes were observed approximately 90 seconds after providing the solvent solution to the space between the transdermal membrane and the vapor permeable membrane. […] Three different transdermal membrane materials were tested including Celgard® 2400 (FIG. 30), Celgard® 2500 (FIG. 31), and Celgard® 3501 (FIG. 32). Celgard® 2400 has an average pore diameter of about 0.041 μm and a porosity of 41%. Celgard® 2500 has an average pore diameter of about 0.064 μm and a porosity of 55%. Celgard® 3501 has an average pore diameter of about 0.064 μm and a porosity of 55%.
[2] = Wetting and permeation of solvent solutions across the transdermal membrane (FIG. 31); assay type: physicochemical; details: Celgard® 2500; 1.6 mL of solution injected between transdermal membrane and vapor permeable membrane; observed approximately 90 seconds after; v/v

Structure (SMILES)	permeation of the solvent solution across the membrane [1]	permeation of the solvent solution across the membrane [2]
CO [100% methanol, methanol]	Some permeation	Some permeation
O [100% water, water]	no permeation	–
